ChEMBL document CHEMBL5375952, “Discovery of Novel 8-Hydroxyquinoline Derivatives with Potent In Vitro and In Vivo Antifungal Activity” (J Med Chem, 2023)
The source made the active and inactive calls. The rule behind the calls is not given here.

Assays:
[1] = test system: Candida albicans; assay: Synergistic inhibition of hypha formation in Candida albicans SC5314 at 4 to 16 ug/ml incubated for 3 hrs in presence of FLC by inverted phase contrast microscopy; type: functional, organism-based; details: dose 4-16 µg/ml
[2] = test system: Candida albicans; assay: Synergistic antifungal activity against FLC-resistant Candida albicans 304103 assessed as MIC of FLC incubated for 48 hrs by broth microdilution method; type: functional
[3] = test system: Candida albicans; assay: Synergistic antifungal activity against FLC-resistant Candida albicans 605141 assessed as fractional inhibitory concentration index incubated for 48 hrs in presence of FLC by broth microdilution method; type: functional
[4] = test system: Candida albicans; assay: Synergistic antifungal activity against FLC-resistant Candida albicans 100 assessed as MIC of FLC incubated for 48 hrs by broth microdilution method; type: functional
[5] = test system: Candida albicans; assay: Synergistic antifungal activity against FLC-resistant Candida albicans 512681 assessed as fungal growth inhibition incubated for 48 hrs in presence of FLC by broth microdilution method; type: functional
[6] = test system: Candida albicans; assay: Synergistic antifungal activity against FLC-resistant Candida albicans 305 assessed as fungal growth inhibition incubated for 48 hrs in presence of FLC by broth microdilution method; type: functional
[7] = test system: Candida albicans; assay: Synergistic antifungal activity against FLC-resistant Candida albicans 538 assessed as fractional inhibitory concentration index incubated for 48 hrs in presence of FLC by broth microdilution method; type: functional
[8] = test system: Candida albicans; assay: Synergistic antifungal activity against FLC-resistant Candida albicans 710554 assessed as fungal growth inhibition incubated for 48 hrs in presence of FLC by broth microdilution method; type: functional
[9] = test system: Candida albicans; assay: Antifungal activity against Candida albicans SC5314 infected in C57BL/6 mouse assessed as mean fungal burden at 2 mg/kg, ip measured after 46 hrs in presence of FLC by plate count method (reference value: 6.902 log10CFU/ml); type: functional
[10] = test system: Candida albicans; assay: Synergistic antifungal activity against FLC-resistant Candida albicans 512681 assessed as MIC of FLC incubated for 48 hrs by broth microdilution method; type: functional
[11] = Volume of distribution at steady state in Sprague-Dawley rat at 2 mg/kg, iv by LC-MS/MS analysis; type: ADME, organism-based; details: in vivo, read-out: Vdss
[12] = test system: Candida albicans; assay: Synergistic antifungal activity against FLC-resistant Candida albicans 395 assessed as fungal growth inhibition incubated for 48 hrs in presence of FLC by broth microdilution method; type: functional
[13] = test system: Candida albicans; assay: Inhibition of biofilm formation of Candida albicans SC5314 at 8 ug/ml incubated for 24 hrs by XTT assay relative to control; type: functional
[14] = test system: Candida albicans; assay: Synergistic antifungal activity against FLC-resistant Candida albicans 512644 assessed as fractional inhibitory concentration index incubated for 48 hrs in presence of FLC by broth microdilution method; type: functional
[15] = test system: Candida albicans; assay: Synergistic antifungal activity against FLC-resistant Candida albicans 646 assessed as fractional inhibitory concentration index incubated for 48 hrs in presence of FLC by broth microdilution method; type: functional
[16] = test system: Candida albicans; assay: Synergistic antifungal activity against FLC-resistant Candida albicans 710554 assessed as fractional inhibitory concentration index incubated for 48 hrs in presence of FLC by broth microdilution method; type: functional
[17] = target: Voltage-gated inwardly rectifying potassium channel KCNH2 (Homo sapiens, UniProt Q12809); assay: Inhibition of hERG measured for 120 secs by electrophysiological method; type: toxicity; details: 2 min, time 120 sec
Voltage-gated inwardly rectifying potassium channel KCNH2, sequence (Q12809 whole entry): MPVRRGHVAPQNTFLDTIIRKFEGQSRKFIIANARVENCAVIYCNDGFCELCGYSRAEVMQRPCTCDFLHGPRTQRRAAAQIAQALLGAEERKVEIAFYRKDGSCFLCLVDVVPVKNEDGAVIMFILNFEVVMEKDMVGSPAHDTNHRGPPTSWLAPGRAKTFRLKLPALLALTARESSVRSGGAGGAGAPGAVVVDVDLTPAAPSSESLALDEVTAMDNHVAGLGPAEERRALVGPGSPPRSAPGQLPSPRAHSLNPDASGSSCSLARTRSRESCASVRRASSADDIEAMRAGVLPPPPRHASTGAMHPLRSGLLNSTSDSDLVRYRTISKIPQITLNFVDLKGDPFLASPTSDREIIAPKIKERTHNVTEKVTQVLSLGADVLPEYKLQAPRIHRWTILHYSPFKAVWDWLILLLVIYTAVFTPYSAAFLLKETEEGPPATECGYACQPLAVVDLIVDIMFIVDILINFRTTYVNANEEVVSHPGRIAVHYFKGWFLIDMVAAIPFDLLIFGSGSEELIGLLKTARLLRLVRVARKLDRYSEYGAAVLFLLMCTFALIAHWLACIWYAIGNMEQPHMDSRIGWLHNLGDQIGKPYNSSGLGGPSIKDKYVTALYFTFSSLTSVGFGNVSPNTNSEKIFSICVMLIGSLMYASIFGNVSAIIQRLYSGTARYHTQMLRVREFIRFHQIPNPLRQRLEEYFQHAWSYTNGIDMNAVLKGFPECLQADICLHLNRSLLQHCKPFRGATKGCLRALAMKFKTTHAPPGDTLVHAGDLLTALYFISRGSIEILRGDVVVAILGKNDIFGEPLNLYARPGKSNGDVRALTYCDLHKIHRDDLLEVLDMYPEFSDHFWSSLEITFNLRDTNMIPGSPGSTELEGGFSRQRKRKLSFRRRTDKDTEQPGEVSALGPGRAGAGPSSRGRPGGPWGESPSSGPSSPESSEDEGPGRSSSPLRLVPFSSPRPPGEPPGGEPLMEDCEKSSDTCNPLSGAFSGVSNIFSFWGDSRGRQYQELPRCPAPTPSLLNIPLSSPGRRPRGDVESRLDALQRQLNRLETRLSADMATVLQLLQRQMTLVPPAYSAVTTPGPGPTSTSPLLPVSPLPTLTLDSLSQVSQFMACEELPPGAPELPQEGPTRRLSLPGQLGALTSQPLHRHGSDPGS

[18] = test system: Candida albicans; assay: Synergistic antifungal activity against FLC-resistant Candida albicans 10 assessed as MIC of FLC incubated for 48 hrs by broth microdilution method; type: functional
[19] = C0 in Sprague-Dawley rat at 2 mg/kg, iv by LC-MS/MS analysis; type: ADME, organism-based; details: in vivo
[20] = test system: Candida albicans; assay: Synergistic antifungal activity against FLC-resistant Candida albicans 512681 assessed as fractional inhibitory concentration index incubated for 48 hrs in presence of FLC by broth microdilution method; type: functional
[21] = test system: Candida albicans; assay: Inhibition of biofilm formation of Candida albicans SC5314 at 4 ug/ml incubated for 24 hrs by XTT assay relative to control; type: functional
[22] = test system: Candida albicans; assay: Antifungal activity against Candida albicans SC5314 assessed as fungal growth inhibition incubated for 48 hrs in presence of Cu2+ by broth microdilution method (reference value: 0.0625 ug/ml); type: functional
[23] = Toxicity in C57BL/6 mouse infected with Candida albicans SC5314 assessed as animal survival at 2 mg/kg, ip measured after 20 days in presence of FLC relative to control; type: organism-based; details: in vivo, 480 h, time 20 day
[24] = test system: Candida albicans; assay: Synergistic antifungal activity against FLC-resistant Candida albicans 11 assessed as fungal growth inhibition incubated for 48 hrs in presence of FLC by broth microdilution method; type: functional
[25] = test system: Candida albicans; assay: Synergistic antifungal activity against FLC-resistant Candida albicans 710513 assessed as MIC of FLC incubated for 48 hrs by broth microdilution method; type: functional
[26] = test system: Candida albicans; assay: Synergistic antifungal activity against FLC-resistant Candida albicans 5740 assessed as MIC of FLC incubated for 48 hrs by broth microdilution method; type: functional
[27] = test system: Candida albicans; assay: Synergistic antifungal activity against FLC-resistant Candida albicans 12 assessed as MIC of FLC incubated for 48 hrs by broth microdilution method; type: functional
[28] = test system: Candida albicans; assay: Synergistic antifungal activity against FLC-resistant Candida albicans 14 assessed as MIC of FLC incubated for 48 hrs by broth microdilution method; type: functional
[29] = Clearance in Sprague-Dawley rat at 2 mg/kg, iv by LC-MS/MS analysis; type: ADME, organism-based; details: in vivo
[30] = test system: Candida albicans; assay: Synergistic antifungal activity against FLC-resistant Candida albicans 241 assessed as fungal growth inhibition incubated for 48 hrs in presence of FLC by broth microdilution method; type: functional
[31] = test system: Candida albicans; assay: Synergistic antifungal activity against FLC-resistant Candida albicans 710419 assessed as fractional inhibitory concentration index incubated for 48 hrs in presence of FLC by broth microdilution method; type: functional
[32] = test system: Candida albicans; assay: Synergistic antifungal activity against FLC-resistant Candida albicans 385 assessed as fungal growth inhibition incubated for 48 hrs in presence of FLC by broth microdilution method; type: functional
[33] = test system: Candida albicans; assay: Synergistic antifungal activity against FLC-resistant Candida albicans 100 assessed as fungal growth inhibition incubated for 48 hrs in presence of FLC by broth microdilution method; type: functional
[34] = test system: Candida albicans; assay: Synergistic antifungal activity against FLC-resistant Candida albicans 241 assessed as fractional inhibitory concentration index incubated for 48 hrs in presence of FLC by broth microdilution method; type: functional
[35] = test system: Candida albicans; assay: Synergistic antifungal activity against FLC-resistant Candida albicans 1221 assessed as MIC of FLC incubated for 48 hrs by broth microdilution method; type: functional
[36] = AUC (0 to infinity) in Sprague-Dawley rat at 2 mg/kg, iv by LC-MS/MS analysis; type: ADME, organism-based; design: dose 2 mg/kg, route iv; details: in vivo
[37] = test system: Candida albicans; assay: Synergistic antifungal activity against FLC-resistant Candida albicans 305 assessed as MIC of FLC incubated for 48 hrs by broth microdilution method; type: functional
[38] = Half life in Sprague-Dawley rat at 2 mg/kg, iv by LC-MS/MS analysis; type: ADME, organism-based; details: in vivo
[39] = test system: Candida albicans; assay: Synergistic antifungal activity against FLC-resistant Candida albicans 249 assessed as fungal growth inhibition incubated for 48 hrs in presence of FLC by broth microdilution method; type: functional
[40] = test system: Candida albicans; assay: Synergistic antifungal activity against FLC-resistant Candida albicans 540 assessed as MIC of FLC incubated for 48 hrs by broth microdilution method; type: functional

SMILES: CCN(CC)c1ccc(C(NC(=O)C(C)C)c2ccc3cccnc3c2O)cc1 (stereo not given)
- inhibition [1]: Active
- MIC [2]: 0.5 µg/mL
- fractional inhibitory concentration index (FICI) [3]: 0.063
- MIC [4]: 0.25 µg/mL
- MIC [5]: 0.031 µg/mL
- MIC [6]: 0.016 µg/mL
- fractional inhibitory concentration index (FICI) [7]: 0.047
- MIC [8]: 0.031 µg/mL
- Activity [9]: 5.244 log10CFU/ml
- MIC [10]: 0.25 µg/mL
- Vd [11]: 4.75 L/kg
- MIC [12]: 0.016 µg/mL
- inhibition at 8 µg/mL [13]: 16.5%
- fractional inhibitory concentration index (FICI) [14]: 0.047
- fractional inhibitory concentration index (FICI) [15]: 0.133
- fractional inhibitory concentration index (FICI) [16]: 0.066
- INH [17]: > 50 µM
- MIC [18]: 0.25 µg/mL
- C0 [19]: 2460 ng/mL
- fractional inhibitory concentration index (FICI) [20]: 0.127
- inhibition at 4 µg/mL [21]: 7.44%
- MIC [22]: 128 µg/mL
- Survival [23]: 20%
- MIC [24]: 0.008 µg/mL
- MIC [25]: 1 µg/mL
- MIC [26]: 2 µg/mL
- MIC [27]: 1 µg/mL
- MIC [28]: 0.25 µg/mL
- clearance [29]: 30.4 mL/min/kg
- MIC [30]: 0.016 µg/mL
- fractional inhibitory concentration index (FICI) [31]: 0.064
- MIC [32]: 0.008 µg/mL
- MIC [33]: 0.016 µg/mL
- fractional inhibitory concentration index (FICI) [34]: 0.039
- MIC [35]: 0.125 µg/mL
- AUC(0-inf) [36]: 1110 ng·h/mL
- MIC [37]: 1 µg/mL
- half-life [38]: 5.28 h
- MIC [39]: 0.008 µg/mL
- MIC [40]: 0.25 µg/mL
